Like-named read-outs stand apart in the source and are kept apart here.
Assays:
H2122 = assay: Cell viability dose-response, H2122; assay type: cell-based, human; conditions: read-out: IC50 (uM) vs indicated non-small cell lung cancer cell line H2122
Outline: (§1)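 Cells plated at 15% confluence in RPMI-1640 with 5% FBS and 2 mM L-glutamine, treated with compound in a 12-point, 3-fold dilution series from 50 micromolar, in duplicate. ATP measured by Cell Titer Glo after 4 days; IC50 taken from the dose-response curve.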

H2073 = assay: Cell viability dose-response, H2073; assay type: cell-based, human; conditions: read-out: IC50 (uM) vs indicated non-small cell lung cancer cell line H2073
Outline: (§2)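 Proliferation/viability determined by ATP content following 4-day incubation with test compound in RPMI-1640 + 5% serum + 2 mM glutamine. IC50 taken as the concentration halving ATP signal on the dose-response curve.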

H2009 = assay: Cell viability dose-response, H2009; assay type: cell-based, human; conditions: Homo sapiens, NCI-H2009; Tables 3 and 4; read-out: IC50 (uM) vs indicated non-small cell lung cancer cell line H2009
Outline: as §2

H1819 = assay: Cell viability dose-response, H1819; assay type: cell-based, human; conditions: Homo sapiens, NCI-H1819, Tables 3 and 4; read-out: IC50 (uM) vs indicated non-small cell lung cancer cell line H1819
Outline: as §1

H1993 = assay: Cell viability dose-response, H1993; assay type: cell-based; conditions: Homo sapiens, NCI-H1993; Tables 3 and 4; read-out: IC50 (uM) vs indicated non-small cell lung cancer cell line H1993
Description: (§3) FIG. 6A. […] Cell viability is plotted vs. compound concentration. Compound was added to cells plated at 15% confluence in 96-well plates in RPMI-1640 media supplemented with 5% Fetal Bovine Serum and 2 mM L-Glutamine. After 4 days of incubation, ATP levels were measured using Cell Titer Glo (Promega). Data are presented as the average of 2 replicates ±SEM.
(§4) Selectivity may be measured by the half maximal inhibitory concentration (IC50), which, as used herein, is a measure of the effectiveness of a compound in killing cells. This quantitative measure indicates how much of a particular compound is needed to kill a particular cell population by half (e.g., as indicated by the amount of ATP). […] The IC50 can be determined by constructing a dose-response curve. The lower the IC50, the higher the potency, and the greater the difference between IC50 values for different cell lines (e.g., sensitive lines vs. insensitive lines, and sensitive lines vs. normal lines) the greater the selectivity. […]
(§5) With this information, we synthesized and tested a series of small molecules derived in conception from the oxalamide and chromone scaffold including N-acyl ureas, as shown in Tables 6-8. Each compound was tested in a 12-point dose-response study starting at 50 micromolar and decreasing in 3-fold increments to sub-nanomolar concentrations, in duplicate. Additionally, one or more additional cell line was tested in the same way.

H460 = assay: Cell viability dose-response, H460; assay type: cell-based; conditions: Homo sapiens, NCI-H460; Tables 3 and 4; read-out: IC50 (uM) vs indicated non-small cell lung cancer cell line H460
Description: as §3, §4, §5

H1395 = assay: Cell viability dose-response, H1395; assay type: cell-based; conditions: Homo sapiens, NCI-H1395; Tables 3 and 4; read-out: IC50 (uM) vs indicated non-small cell lung cancer cell line H1395
Description: as §3, §4, §5

HCC95 = assay: Cell viability dose-response, HCC95; assay type: cell-based; conditions: Homo sapiens, Tables 3 and 4, read-out: IC50 (uM) vs indicated non-small cell lung cancer cell line HCC95
Description: as §3, §4, §5

HCC44 = assay: Cell viability dose-response, HCC44; assay type: cell-based, human; conditions: read-out: IC50 (uM) vs indicated non-small cell lung cancer cell line HCC44
Outline: as §2

HCC4017 = assay: Cell viability dose-response, HCC4017; assay type: cell-based, human; conditions: read-out: IC50 (uM) vs indicated non-small cell lung cancer cell line HCC4017
Description: as §3, §4, §5

H1155 = assay: Cell viability dose-response, H1155; assay type: cell-based; conditions: Homo sapiens, NCI-H1155; Tables 3 and 4; read-out: IC50 (uM) vs indicated non-small cell lung cancer cell line H1155
Description: as §3, §4, §5

HBEC30KT = assay: Cell viability (ATP, Cell Titer Glo, 4 days), HBEC30KT; assay type: cell-based, human; conditions: Homo sapiens, Tables 3 and 4; read-out: HBEC30KT IC50
Description: as §3, §4

HCC366 = assay: Cell viability dose-response, HCC366; assay type: cell-based; conditions: Homo sapiens, Tables 3 and 4, read-out: IC50 (uM) vs indicated non-small cell lung cancer cell line HCC366
Description: as §3, §4, §5

[1] = Homo sapiens, NCI-H2122, Tables 3 and 4
[2] = Homo sapiens, NCI-H2073, Tables 3 and 4
[3] = Homo sapiens, HCC44, Tables 3 and 4
[4] = Homo sapiens, HCC4017, Tables 3 and 4

Row | SMILES | IC50 (H2122; [1]) | IC50 (H2073; [2]) | IC50 (H2009) | IC50 (H1819) | IC50 (H1993) | IC50 (H460) | IC50 (H1395) | IC50 (HCC95) | IC50 (HCC44; [3]) | IC50 (HCC4017; [4]) | IC50 (H1155) | IC50 (HBEC30KT) | IC50 (HCC366) | IC50 (H2122; Tables 3 and 4) | IC50 (HCC44; Tables 3 and 4) | IC50 (H2073; Tables 3 and 4) | IC50 (HCC4017; Tables 3 and 4)
1 | O=C(Nc1nc2c(s1)CCCC2)c1ccc(Cc2ccccc2)cc1 [SW011940] | 0.037 µM | 2.63 µM | 7 µM | 46.3 µM | 12.7 µM | 2.13 µM | 35.6 µM | 5.86 µM | 50.6 µM | 4.26 µM | 21.7 µM |  |  |  |  |  | 
2 | CCN(CC)c1ccc(C(=O)Nc2nc3ccc4ccccc4c3s2)cc1 [SW018825] | 0.129 µM | 0.424 µM |  |  | 47.5 µM |  |  | 2.23 µM |  |  |  |  |  |  |  |  | 
3 | NC(=O)c1c(NC(=O)c2ccc(Br)o2)sc2c1CCCC2 [SW172864] |  | 0.129 µM | 3.2 µM |  | 0.871 µM | 35.1 µM | 44.5 µM | 43.6 µM | 2.52 µM | 1.71 µM |  | 12.6 µM |  |  |  |  | 
4 | O=C(c1ccc(O)cc1)c1ccc(NC(=O)c2sc3ccccc3c2Cl)cc1 [SW202856-1] | 33.8 µM | 48.4 µM | 4.76 µM | 40.2 µM | 13.6 µM | 44.5 µM |  | 12.8 µM | 1.06 µM | 13.3 µM | 20.4 µM | 6.08 µM | 40.6 µM |  |  |  | 
5 | O=C(Nc1cccc(NC(=O)c2sc3ccccc3c2Cl)c1)c1ccco1 [SW023008-2] | 1.27 µM |  |  |  |  |  |  |  | 105 µM | 809 µM |  | 82.5 µM |  |  |  |  | 
6 | O=C(Nc1nc2ccc(F)cc2s1)c1sc2ccccc2c1Cl [SW147703] | 3.3 µM | 1.12 µM | 34.5 µM |  | 13.5 µM |  |  | 32.4 µM | 37.5 µM |  | 13.3 µM | 33.3 µM |  |  |  |  | 
7 | COc1ccc2sc(NC(=O)c3ccc([N+](=O)[O-])cc3)nc2c1 [SW004969] | 0.21 µM | 0.658 µM | 5.5 µM |  |  | 0.521 µM |  | 0.2 µM |  |  |  |  |  |  |  |  | 
8 | COc1ccccc1NC(=O)c1sc2ccccc2c1Cl [SW004989] | 0.801 µM | 0.052 µM | > 8 µM | 43.7 µM | > 5 µM |  |  |  | 56.8 µM | 249 µM |  |  |  | 1.02 µM | 38.7 µM |  | 
9 | CCOC(=O)c1c(NC(=O)c2ccc([N+](=O)[O-])cc2)sc2c1CCCC2 [SW108364-2] | 5.92 µM | 24.3 µM | 15.8 µM |  | 23.4 µM |  |  |  | 35.2 µM | 35.2 µM |  | 35.2 µM |  |  |  |  | 
10 | O=C(Nc1cccc(F)c1)c1sc2ccccc2c1Cl [SW202550] | 1.91 µM |  |  |  |  |  |  |  | 0.566 µM | 17.3 µM |  | 105 µM |  |  |  |  | 
11 | O=C(Nc1ccc(F)cc1)c1sc2ccccc2c1Cl [SW006505] | 1.7 µM |  |  |  |  |  |  |  | 0.657 µM | 262 µM |  | 63.9 µM |  |  |  |  | 
12 | O=C(Nc1ccccc1N1CCCC1)c1sc2ccccc2c1Cl [SW174698] | 5.12 µM |  |  |  |  |  |  |  | 3.06 µM | 403 µM |  | 4950 µM |  |  |  |  | 
13 | O=C(Nc1nc2c(s1)CCCC2)c1ccccc1Oc1ccccc1 [SW045964] | 1 µM | 3.2 µM | 55 µM | 143 µM | 55.9 µM |  | 620 µM | 140 µM | 489 µM | 407 µM | 389 µM | 321 µM | 149 µM |  |  |  | 
14 | O=C(Nc1ccccc1F)c1sc2ccccc2c1Cl [SW118094] | 1.05 µM |  |  | 1.21 µM |  | 0.606 µM |  |  | 0.09 µM | 0.322 µM |  | 34.1 µM | 124 µM |  |  |  | 
15 | O=C(Nc1nc2ccc(O)cc2s1)c1c(F)ccc(O)c1F [SW202860-1] | 4.05 µM | 18.1 µM | 41.7 µM |  | 35.6 µM | 47.8 µM |  | 44.9 µM | 15.1 µM | 47.5 µM | 49.2 µM |  | 42.6 µM |  |  |  | 
16 | NC(=O)c1ccccc1NC(=O)c1sc2ccccc2c1Cl [SW119800] | 2.66 µM |  |  |  |  |  |  |  | 206 µM | 467 µM |  | 85.4 µM |  |  |  |  | 
17 | NC(=O)c1c(NC(=O)COc2ccccc2)sc2c1CCCC2 [SW119324] |  |  | 0.881 µM |  | > 8 µM |  |  | 28.5 µM | 34.4 µM |  | 44.5 µM | 10.4 µM |  |  |  |  | 
18 | COc1ccc2nc(NC(=O)c3cccnc3)sc2c1 [SW202774-1] | 1.08 µM | 1.34 µM | 36.6 µM |  | 25.5 µM | 1.31 µM |  | 0.336 µM | 1.01 µM |  | 35.2 µM | 46.7 µM |  |  |  |  | 
19 | COc1ccc2nc(NC(=O)c3c(F)ccc(OC)c3F)sc2c1 [SW202775-1] | 6.53 µM | 5.96 µM |  |  | 8.87 µM | 48 µM |  | 3.19 µM | 16.9 µM |  | 35.5 µM |  |  |  |  |  | 
20 | O=C(Nc1nc2ccccc2s1)c1ccc([N+](=O)[O-])cc1 [SW003992] | 0.14 µM | 0.65 µM |  | 358 µM | 524 µM |  | 1580 µM | 2270 µM | 3500 µM | 1440 µM | 2870 µM | 1630 µM | 1040 µM |  |  |  | 
21 | COc1ccc2nc(NC(=O)c3ccc([N+](=O)[O-])cc3)sc2c1 [SW001282-2] | 0.159 µM | 0.752 µM | 2.81 µM |  |  | 0.512 µM |  | 19.6 µM | 30.1 µM |  |  | 49.2 µM |  |  |  |  | 
22 | Cc1cc(C)nc(SCC(=O)Nc2nc3ccccc3s2)n1 [SW053831] | 47 µM | 0.85 µM | 104 µM | 63 µM | 29 µM |  | 65 µM | 85 µM | 33 µM | 98 µM | 43 µM | 60 µM | 80 µM |  |  |  | 
23 | COC(=O)c1ccc(C(=O)Nc2nc3ccc(N)cc3s2)cc1 [SW001296] | 35.1 µM |  |  |  |  | 4.46 µM |  |  | 0.34 µM |  |  |  |  |  |  | 3.72 µM | 
24 | O=C(Nc1cccc(NC(=O)c2sc3ccccc3c2Cl)c1)c1cccc(Cl)c1 [SW023441-2] |  |  |  |  |  |  |  |  |  |  |  | 31.8 µM |  | 0.473 µM | 27.7 µM |  | 46 µM
25 | CCOC(=O)c1c(NC(=O)c2ccc(F)cc2)sc2c1CCCC2 [SW202859-1] |  |  |  |  | 47.1 µM |  |  | 31.4 µM |  |  |  | 38.2 µM |  |  |  |  | 
26 | CCOc1cc(OCC)cc(C(=O)Nc2nc3ccc(OC)cc3s2)c1 [SW202776-1] |  | 4.56 µM | 15.3 µM |  |  |  |  | 8.15 µM |  |  | 46.2 µM |  |  |  |  |  | 
27 | O=C(Nc1ccc(F)c(Cl)c1)c1sc2ccccc2c1Cl [SW118753] | 0.8 µM | 0.9 µM | 65 µM | 38 µM | 73 µM |  | 600 µM | 300 µM | 265 µM | 700 µM | 105 µM | 108 µM | 375 µM |  |  |  | 
